For assay [1], the system named is A549. Put plainly: Antiproliferative activity against human A549 cells incubated for 3 days by CCK-8 assay. Format: functional, cell-based. Conditions: A549, 72 h.
The next assay has as its system Quadruplex DNA. Put plainly: Binding affinity to G-quadruplex DNA (unknown origin) at 5 uM by fluorescence quenching analysis. Format: nucleic-acid assay.
The subject of assay [2] is A549. Put plainly: Antitumor activity against human A549 cells xenografted in BALB/c mouse assessed as tumor growth inhibition at 20 mg/kg, po administered once a day and measured up to 24 days. The class given is functional. Conditions: A549, 576 h, time <= 24 day, read-out: TGI.
Assay [3] deals with BaF3. Put plainly: Antiproliferative activity against mouse BaF3 cells harboring TPR-MET L1195V mutant incubated for 24 hrs by CCK-8 assay. Conditions: BaF3, 24 h. The class given is functional, cell-based.
For assay [4], the system named is BaF3. Briefly: Antiproliferative activity against mouse BaF3 cells harboring TPR-MET […] mutant incubated for 24 hrs by CCK-8 assay. Format: functional, cell-based. Conditions: BaF3, 24 h.
Assay [5] has as its system BaF3. Briefly: Antiproliferative activity against mouse BaF3 cells harboring TPR-MET D1228N mutant incubated for 24 hrs by CCK-8 assay. The class given is functional, cell-based. The following applies: BaF3, 24 h.
For assay [6], the system named is A549. Put plainly: Downregulation of c-MYC expression in human A549 cells up to 2000 nM incubated for 72 hrs by Western blot analysis. The class given is functional, cell-based.

The source made the active and inactive calls. The calls are words filed in the database; no cut-off is given here.

In the case of `O=C(Nc1cccc(-c2cc3cccnc3c3ncccc23)c1)c1ccc(Cl)nc1`, the half-maximal inhibitory concentration (IC50) with A549 [1] is 3440 nM.

Compound `c1cnc2c(c1)c1nc(-c3cc(-c4ccc5c(c4)OCCO5)cs3)[nH]c1c1cccnc12` yielded a half-maximal inhibitory concentration (IC50) in the assay with A549 [1] of 890 nM.

The compound `COc1ccc(C(=O)Nc2cccc(-c3cc4cccnc4c4ncccc34)c2)cc1` gave a half-maximal inhibitory concentration (IC50) in the assay on A549 [1] of 1130 nM.

`COc1cccc(-c2csc(-c3nc4c5cccnc5c5ncccc5c4[nH]3)c2)c1` yielded a 50% inhibitory concentration (IC50) with A549 [1] of 580 nM.

`COc1cc(-c2nc3c4cccnc4c4ncccc4c3[nH]2)cc2c1OCO2`: in the assay on Quadruplex DNA, the outcome was Active.

In the assay on A549 [1], `O=C(Nc1cccc(-c2cc3cccnc3c3ncccc23)c1)c1ccccc1` registered a concentration for half-maximal inhibition (IC50) of 1790 nM.

`c1cnc2c(c1)c1nc(-c3ccc(-c4ccc5c(c4)OCCO5)o3)[nH]c1c1cccnc12`: inhibition with A549 [1] was half-maximal at 710 nM (IC50).

For `COc1cc2nccc(Oc3ccc(NC(=O)C4(C(=O)Nc5ccc(F)cc5)CC4)cc3)c2cc1OC` [CABOZANTINIB], the concentration for half-maximal inhibition (IC50) with A549 [1] was determined as 4400 nM; in the assay with BaF3 [3], 920 nM; in the assay on BaF3 [4], 3980 nM; in the assay with BaF3 [5], 5840 nM. In addition, the inhibition in vivo at 20 mg/kg in the assay on A549 [2] amounted to 51.7%.

For the compound `O=[N+]([O-])c1ccc(-c2ccc(-c3nc4c5cccnc5c5ncccc5c4[nH]3)o2)cc1`, in the assay on A549 [1], the IC50 turned out to be 3200 nM.

`Brc1csc(-c2nc3c4cccnc4c4ncccc4c3[nH]2)c1`: in the assay on A549 [1], the IC50 was 6100 nM.

Consider `COc1cccc(C(=O)Nc2cccc(-c3cc4cccnc4c4ncccc34)c2)c1OC`, for which the 50% inhibitory concentration (IC50) with A549 [1] came out at 1200 nM.

In turn, `N#Cc1cccc(C(=O)Nc2cccc(-c3cc4cccnc4c4ncccc34)c2)c1` showed a 50% inhibitory concentration (IC50) in the assay with A549 [1] of 2510 nM.

Turning to `Cn1ccc(-c2ccc(-c3nc4c5cccnc5c5ncccc5c4[nH]3)o2)n1`, in the assay on A549 [1], the midpoint of inhibition, the IC50, lay at 4950 nM.

In turn, `Fc1cccc(-c2ccc(-c3nc4c5cccnc5c5ncccc5c4[nH]3)o2)c1` displayed an IC50 with A549 [1] of 1430 nM.

In the assay with A549 [1], `O=C(Nc1cccc(-c2cc3cccnc3c3ncccc23)c1)c1ccc2nccnc2c1` had a half-inhibitory concentration (IC50) of 800 nM. Also, the result in the assay on A549 [6] was Active.

For `Nc1cccc(-c2cc3cccnc3c3ncccc23)c1`, in the assay with Quadruplex DNA, the outcome was Active.

For the compound `Brc1ccc(-c2nc3c4cccnc4c4ncccc4c3[nH]2)o1`, in the assay on A549 [1], the midpoint of inhibition, the IC50, lay at 4470 nM.

On to `Cn1ccc(-c2csc(-c3nc4c5cccnc5c5ncccc5c4[nH]3)c2)n1`, for which the 50% inhibitory concentration (IC50) with A549 [1] is 3720 nM.

In turn, `N#Cc1ccc(-c2ccc(-c3nc4c5cccnc5c5ncccc5c4[nH]3)o2)cc1` registered an IC50 in the assay with A549 [1] of 4900 nM.

With `Oc1ccc(-c2ccc(-c3nc4c5cccnc5c5ncccc5c4[nH]3)o2)cc1`, in the assay with A549 [1], the IC50 was found to be 2130 nM.

Turning to `N#Cc1cccc(-c2ccc(-c3nc4c5cccnc5c5ncccc5c4[nH]3)o2)c1`, in the assay with A549 [1], it took 1050 nM to reach half-maximal inhibition (IC50).

As for `N#Cc1cccc(-c2csc(-c3nc4c5cccnc5c5ncccc5c4[nH]3)c2)c1`, the IC50 in the assay with A549 [1] came to 6530 nM.

The values above are taken from ChEMBL document CHEMBL6182924, “Discovery of a Novel and Potent MET Transcription Inhibitor Targeting Promoter G-Quadruplex for the Treatment of NSCLC” (J Med Chem, 2025).
